We go through four molecules from patent publication US7888351B2, “Organic compounds” (Novartis AG, priority 2006, dated 2011).

The target in the experiment is T1, human DPP-IV (Homo sapiens, UniProt P27487).
T1 construct: Human DPP-IV consisting of amino acids 39 to 766 followed by a C-terminal Streptavidin-tag; Streptavidin-tag (C); made in house
The experiment is described as follows: Activity assay: inhibitory activity to human DPP-IV (fluorogenic substrate H-Gly-Pro-AMC). The settings on record: substrate H-Gly-Pro-AMC 10 μM, enzyme 10 pM, room temperature, 1 hour; read-out: hDPPIV IC50. The format is biochemical. The method, then: Various compounds of the invention were tested for their inhibitory activity to human DPP-IV.
Human DPP-IV consisting of amino acids 39 to 766 followed by a C-terminal Streptavidin-tag was expressed using the baculovirus system and purified to >80% purity. The enzyme was stored in 25 mM Tris buffer, pH 9.0, containing 300 mM NaCl at −80° C. The fluorogenic substrates H-Gly-Pro-AMC was purchased from Bachem AG (Bubendorf, Switzerland). The substrate was kept as a 5 mM stock solution in DMSO at −20° C. All other chemicals were purchased from Sigma (Buchs, Switzerland).
The assay buffer for the DPP-IV reaction was 25 mM Tris/HCl, pH 7.5, containing 140 mM NaCl, 10 mM KCl and 0.05% (w/v) CHAPS.
The test compounds were dissolved in 90% DMSO/10% H2O (v/v). Serial dilutions of the compounds from 3 mM to 0.03 μM in 90% DMSO/10% H2O (v/v) followed by a 1:33.3 dilution in assay buffer was done in 96-well polypropylene plates using a CyBio Dilus 8-channel pipetter (CyBio AG, Jena, Germany) with tip change after each pipetting step. The compound solutions as well as the substrate and the enzyme solutions were transferred to the assay plates (384-well black Cliniplate; cat. no. 95040020 Labsystems Oy, Finland) by means of a CyBi-Well 96-channel pipetter (CyBio AG, Jena, Germany).
Enzyme kinetics were measured by mixing 10 μl of a 3-fold concentrated substrate solution in assay buffer (final substrate concentration was 10 μM) with 10 μl of the corresponding compound solution. The reactions were initiated by addition of 10 μl of a 3-fold concentrated solution of the enzyme in assay buffer. Final enzyme (active site) concentrations in the assay was 10 pM for DPP-IV. Fluorescence product (AMC) formation was monitored for 1 hour at room temperature at 35 second intervals by measuring the fluorescence emission at 500 nm using an exitation wavelength of 350 nm in a TECAN Ultra fluorescence reader (TECAN, Maennedorf, Switzerland). The fluorescence in each well was excited by one flash per measurement. The Origin software package (Origin 7.5 Mircocal, Northampton, Mass., USA) was used to generate all graphs and to perform the IC50 calculations.

pIC50: −log10 of the molar value.

Usually pIC50 stands for the negative decadic logarithm of the IC50, by convention in mol/L.

T1 sequence (P27487 39-766): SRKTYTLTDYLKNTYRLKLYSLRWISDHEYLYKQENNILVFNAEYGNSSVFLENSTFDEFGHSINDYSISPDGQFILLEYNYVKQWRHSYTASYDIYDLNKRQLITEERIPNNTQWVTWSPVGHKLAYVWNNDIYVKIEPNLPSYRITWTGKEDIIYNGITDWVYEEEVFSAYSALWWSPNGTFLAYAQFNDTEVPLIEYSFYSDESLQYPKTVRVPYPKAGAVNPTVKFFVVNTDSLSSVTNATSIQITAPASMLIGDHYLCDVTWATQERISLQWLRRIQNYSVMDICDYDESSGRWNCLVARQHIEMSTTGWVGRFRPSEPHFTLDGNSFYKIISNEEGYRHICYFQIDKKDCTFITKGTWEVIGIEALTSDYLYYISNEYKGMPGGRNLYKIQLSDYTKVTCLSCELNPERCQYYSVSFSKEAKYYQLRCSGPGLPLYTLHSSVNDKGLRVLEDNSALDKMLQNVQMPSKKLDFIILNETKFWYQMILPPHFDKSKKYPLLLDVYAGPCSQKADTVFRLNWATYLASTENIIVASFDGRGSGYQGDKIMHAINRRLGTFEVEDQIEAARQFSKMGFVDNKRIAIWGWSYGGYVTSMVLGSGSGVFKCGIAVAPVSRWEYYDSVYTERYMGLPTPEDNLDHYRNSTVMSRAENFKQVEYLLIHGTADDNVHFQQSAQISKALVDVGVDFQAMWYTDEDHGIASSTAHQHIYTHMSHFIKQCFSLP

As for `Cc1cnc(C(=O)NCCS(=O)(=O)N2[C@@H]3CC[C@H]2C[C@H]([C@H](N)Cc2cc(F)c(F)cc2F)C3)cn1` [Example D1, 5-Methyl-pyrazine-2-carboxylic acid (2-{3-exo-[(R)-1-amino-2-(2,4,5-trifluoro-phenyl)-ethyl]-8-aza-bicyclo[3.2.1]octane-8-sulfonyl}-ethyl)-amide], the pIC50 was 8.11.

Take `N[C@H](Cc1cc(F)c(F)cc1F)[C@@H]1C[C@H]2CC[C@@H](C1)N2C(=O)CNC(=O)C1(O)CC1` [Example E7, 1-Hydroxy-cyclopropanecarboxylic acid (2-{3-exo-[(R)-1-amino-2-(2,4,5-trifluoro-phenyl)-ethyl]-8-aza-bicyclo[3.2.1]oct-8-yl}-2-oxo-ethyl)-amide]: the pIC50 was 9.22.

As to `C[C@](O)(C(=O)N1[C@@H]2CC[C@H]1C[C@H]([C@H](N)Cc1cc(F)c(F)cc1F)C2)c1ccccc1` [Example G4, (R)-1-{3-exo-[(R)-1-Amino-2-(2,4,5-trifluoro-phenyl)-ethyl]-8-aza-bicyclo[3.2.1]oct-8-yl}-2-hydroxy-2-phenyl-propan-1-one], the pIC50 was 8.00.

For the molecule `N[C@H](Cc1cc(F)c(F)cc1F)[C@@H]1C[C@H]2CC[C@@H](C1)N2C(=O)CS(=O)(=O)N1Cc2ccccc2C1` [Example H13, 1-{3-exo-[(R)-1-Amino-2-(2,4,5-trifluoro-phenyl)-ethyl]-8-aza-bicyclo[3.2.1]oct-8-yl}-2-(1,3-dihydro-isoindole-2-sulfonyl)-ethanone], the pIC50 is 8.15.
